Laboratory results taken from patent US10030016B2 (Sunesis Pharmaceuticals, Inc., priority 2009, dated 2018).
Counter-ions that a name gives are not always drawn. Like-named read-outs stand apart in the source and are kept apart here.

How the values were obtained:
[1] = biological target: PDK1 (Homo sapiens (Human), UniProt O15530); experiment: PDK1 kinase assay (coupled PDK1/AKT/FAM-crosstide assay, IMAP fluorescence polarization); assay type: biochemical
In short: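 PDK1 activity is measured indirectly through activation of a PIFtide-fused AKT2 construct that phosphorylates FAM-crosstide (100 nM). The reaction uses 0.75 nM PDK1, 40 μM ATP, 30 min, 25° C, with IMAP polarization detection.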

[2] = test system: phospho-akt (Thr308) in PC-3 cells; experiment: Inhibition of phospho-akt (Thr308) in PC-3 cells, MSD phospho-akt 308 ELISA kit; assay type: cell-based; conditions: 2 hours, no serum, read-out: EC50
In short: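 Electrochemiluminescent MSD ELISA of Thr308-phosphorylated Akt after a 2 h serum-free compound exposure of PC-3 cells (15,000/well, plated overnight). Controls: DMSO (high), 5 μM wortmannin (low). Lysate binding overnight at 4 °C; detection antibody 1 h at room temperature.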

[3] = inhibition of phospo-PDK1 in vitro
[4] = Homo sapiens, inhibition of P308 Akt in PC-3 cells, MSD
[5] = Homo sapiens, inhibition of P308 Akt in PC-3 cells using MSD

Sequence of PDK1 (O15530 51-359): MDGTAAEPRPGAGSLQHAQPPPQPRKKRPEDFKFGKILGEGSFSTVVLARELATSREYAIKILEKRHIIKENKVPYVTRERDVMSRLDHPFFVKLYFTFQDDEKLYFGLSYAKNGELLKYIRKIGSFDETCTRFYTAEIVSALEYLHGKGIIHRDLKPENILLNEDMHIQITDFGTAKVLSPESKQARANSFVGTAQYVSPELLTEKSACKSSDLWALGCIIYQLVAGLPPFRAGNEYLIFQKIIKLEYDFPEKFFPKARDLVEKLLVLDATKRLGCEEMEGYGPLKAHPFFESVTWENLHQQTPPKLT

Row | Compound | IC50 [1, 3] | EC50 [2, 4] | IC50 ([1]; inhibition of PDK1 in vitro) | EC50 [2, 5] | EC50 ([2]; inhibition of P308 Akt in PC-3 cells, MSD)
1 | C[C@H](NC(=O)c1cc(C(F)(F)F)cnc1NCc1ccc(-c2ccc3ncnc(N)c3c2)s1)c1ccc(F)cc1 [Example 8.12.5, 2-({[5-(4-aminoquinazolin-6-yl)thiophen-2-yl]methyl}amino)-N-[(1S)-1-(4-fluorophenyl)ethyl]-5-(trifluoromethyl)pyridine-3-carboxamide] | < 100 nM | 1000 to 10000 nM | – | – | –
2 | C[C@H](NC(=O)c1cc(C#N)cnc1NCc1ccc(-c2cnc(N)c(C(=O)NC3CC3)n2)cc1)c1ccc(F)cc1 [Example 218, (S)-3-amino-6-(4-((5-cyano-3-(1-(4-fluorophenyl)ethylcarbamoyl)pyridin-2-ylamino)methyl)phenyl)-N-cyclopropylpyrazine-2-carboxamide] | – | – | < 100 nM | < 1000 nM | –
3 | CCOC(=O)c1cccnc1NCc1cc(OC(C)C)cc(-c2cn(S(=O)(=O)c3ccccc3)c3ncc(C(=O)NC4CC4)cc23)c1 [4.1.17] | > 5000 nM | – | – | – | > 10000 nM
4 | C[C@H](NC(=O)c1cccnc1NCc1ccc(-c2cnc3[nH]c(=O)[nH]c3c2)cc1)c1ccc(F)cc1 [Example 359, (S)-N-(1-(4-fluorophenyl)ethyl)-2-(4-(2-oxo-2,3-dihydro-1H-imidazo[4,5-b]pyridin-6-yl)benzylamino) nicotinamide] | – | – | < 100 nM | < 1000 nM | –
5 | Cc1cnc2c3cc(-c4ccc(CNc5ncccc5C(=O)N[C@@H](C)c5ccc(F)c(F)c5)s4)ccc3ncn12 [Example 49, (S)-N-(1-(3,4-difluorophenyl)ethyl)-2-((5-(3-methyl-imidazo[1,2-c]quinazolin-9-yl)thiophen-2-ylmethyl)amino) nicotinamide] | – | – | < 100 nM | > 10000 nM | –
6 | O=C(NCc1ccc(F)c(F)c1)c1cccnc1NCc1ccc(-c2cnc3[nH]ccc3c2)nc1 [Example 328] | – | – | < 100 nM | > 10000 nM | –
7 | Nc1ncnc2ccc(-c3ccc(CNc4ncccc4C(=O)NCc4cccc(F)c4)s3)cc12 [Example 3.9, 2-({[5-(4-aminoquinazolin-6-yl)thiophen-2-yl]methyl}amino)-N-(3-fluorobenzyl)pyridine-3-carboxamide (TFA salt)] | < 100 nM | < 1000 nM | – | – | –
8 | Nc1ncnc2ccc(-c3ccccc3CNc3ncccc3C(=O)NCc3ccc(F)c(F)c3)cc12 [Ex. 6.5, 2-{[2-(4-aminoquinazolin-6-yl)benzyl]amino}-N-(3,4-difluorobenzyl) pyridine-3-carboxamide] | > 5000 nM | 1000 to 10000 nM | – | – | –
9 | Cc1nc2cc(-c3ccc(CNc4ncc(C#N)cc4C(=O)N[C@@H](C)c4ccc(F)cc4)cc3)cnc2[nH]1 [Example 138, (S)-5-cyano-N-(1-(4-fluorophenyl)ethyl)-2-(4-(2-methyl-3H-imidazo[4,5-b]pyridin-6-yl)benzylamino) nicotinamide] | – | – | < 100 nM | < 1000 nM | –
10 | C[C@H](NC(=O)c1cc(C#N)cnc1NCc1ccc(-c2cnc3c(c2)OCCN3)cc1)c1ccc(F)cc1 [Example 137, (S)-5-cyano-2-(4-(3,4-dihydro-2H-pyrido [3,2-b][1,4]oxazin-7-yl)benzylamino)-N-(1-(4-fluorophenyl)ethyl)nicotinamide] | – | – | < 100 nM | 1000 to 10000 nM | –
11 | Nc1n[nH]c2ncc(-c3ccc(CNc4ncc(C(F)(F)F)cc4C(=O)Nc4ccncc4)cc3)cc12 [Example 288, 2-(4-(3-amino-1H-pyrazolo [3,4-b]pyridin-5-yl)benzylamino)-N-(pyridin-4-yl)-5-(trifluoromethyl) nicotinamide] | – | – | < 100 nM | 1000 to 10000 nM | –
12 | Nc1n[nH]c2ncc(-c3ccc(CNc4ncc(C(F)(F)F)cc4-c4nc5cc(F)ccc5[nH]4)cc3)cc12 [Example 349, 5-(4-((3-(5-fluoro-1H-benzo[d]imidazol-2-yl)-5-(trifluoromethyl)pyridin-2-ylamino)methyl)phenyl)-1H-pyrazolo[3,4-b] pyridin-3-amine] | – | – | > 5000 nM | > 10000 nM | –
13 | C[C@H](NC(=O)c1cccnc1NCCOc1ccc2cc[nH]c2c1)c1ccc(F)c(F)c1 [Example 19.1, (S)-2-(2-(1H-indol-6-yloxy)ethylamino)-N-(1-(3,4-difluorophenyl)ethyl)nicotinamide] | > 5000 nM | > 10000 nM | – | – | –
14 | CNC(=O)c1cc(S(=O)(=O)NCc2ccccc2)cnc1NCc1ccc(-c2ccc3ncnc(N)c3c2)s1 [Example 8.6.15, 2-(((5-(4-aminoquinazolin-6-yl)thiophen-2-yl)methyl)amino)-5-(N-benzylsulfamoyl)-N-methylnicotinamide] | < 100 nM | > 10000 nM | – | – | –
15 | Nc1ncnc2ccc(-c3ccc(CNc4ncccc4C(=O)Nc4ccc(Cl)c(F)c4)s3)cc12 [Example 3.55, 2-({[5-(4-aminoquinazolin-6-yl)thiophen-2-yl]methyl}amino)-N-(4-chloro-3-fluorophenyl) pyridine-3-carboxamide (TFA salt)] | 100 to 1000 nM | > 10000 nM | – | – | –
16 | C[C@H](NC(=O)c1cc(C(F)(F)F)cnc1NCc1ccc(-c2ccc3ncnc(N)c3c2)s1)c1ccc(F)c(F)c1 [Example 8.12.6, 2-({[5-(4-aminoquinazolin-6-yl)thiophen-2-yl]methyl}amino)-N-[(1S)-1-(3,4-difluorophenyl)ethyl]-5-(trifluoromethyl)pyridine-3-carboxamide] | < 100 nM | < 1000 nM | – | – | –
17 | CC(C)Oc1cc(CNc2ncccc2C(=O)NCc2ccc(F)c(F)c2)cc(-c2c[nH]c3ncccc23)c1 [Example 5.7, N-(3,4-difluorobenzyl)-2-(3-isopropoxy-5-(1H-pyrrolo[2,3-b]pyridin-3-yl)benzylamino)nicotinamide] | < 100 nM | 1000 to 10000 nM | – | – | –
18 | Nc1ncnc2ccc(-c3ccc(CNc4ncc(OCc5ccccc5)cc4C(=O)NCc4ccc(F)c(F)c4)s3)cc12 [Ex. 8.1.1, 2-({[5-(4-aminoquinazolin-6-yl)thiophen-2-yl]methyl}amino)-5-(benzyloxy)-N-(3,4-difluorobenzyl)pyridine-3-carboxamide] | < 100 nM | 1000 to 10000 nM | – | – | –
19 | Nc1ncc(-c2ccc(CNc3ncc(C(F)(F)F)cc3C(=O)Nc3ccc(F)cc3)cc2)nc1N1CCNCC1 [Example 193, 2-[4-(3′-Amino-3,4,5,6-tetrahydro-2H-[1,2′]bipyrazinyl-6′-yl)-benzylamino]-N-(4-fluoro-phenyl)-5-trifluoromethyl-nicotinamide] | – | – | < 100 nM | 1000 to 10000 nM | –
20 | Cc1[nH]c(/C=C2\C(=O)Nc3cc(/C=C/CNc4ncccc4C(=O)NCc4ccc(F)c(F)c4)ccc32)c(C)c1C(=O)O [Example 15.6] | > 5000 nM | < 1000 nM | – | – | –
21 | C[C@H](NC(=O)c1cc(C#N)cnc1NCc1ccc(-c2ccnc(C#N)c2)cc1)c1ccc(F)cc1 [Example 108, (S)-5-cyano-2-(4-(2-cyanopyridin-4-yl)benzylamino)-N-(1-(4-fluorophenyl)ethyl)nicotinamide] | – | – | > 5000 nM | > 10000 nM | –
22 | CN(C)S(=O)(=O)c1cnc(NCc2ccc(-c3ccc4ncnc(N)c4c3)s2)c(C(=O)NCc2ccc(F)c(F)c2)c1 [Example 8.7.5] | < 100 nM | < 1000 nM | – | – | –
23 | C[C@H](NC(=O)c1nc(C#N)cnc1NCc1ccc(-c2cnc(N)c(CCCO)n2)cc1)c1ccc(F)c(F)c1 [Example 95, 3-{4-[5-Amino-6-(3-hydroxy-propyl)-pyrazin-2-yl]-benzyl-amino}-6-cyano-pyrazine-2-carboxylic acid [(S)-1-(3,4-difluoro-phenyl)-ethyl]-amide] | – | – | < 100 nM | < 1000 nM | –
